Measurements taken from patent US5229409A, “6-substituted-tetrahydrobenz[cd]indoles” (Eli Lilly and Company, priority 1991, dated 1993).

Columns and labels:
5-HT1D receptor = molecular target: T1, 5-HT1D receptor (Bos taurus, UniProt F1MGM3); experiment: [3H]5-HT binding to 5-HT1D sites in caudate nuclei membranes; details: bovine caudate membranes, [3H]5-HT 1.7-1.9 nM, pH 7.4, 37° C
T1 construct: the caudate nuclei were dissected out and frozen at -70° C; tissue Pel-Freeze Biologicals; host or cells: bovine caudate nuclei, washed membranes
T1 sequence (F1MGM3 1-403): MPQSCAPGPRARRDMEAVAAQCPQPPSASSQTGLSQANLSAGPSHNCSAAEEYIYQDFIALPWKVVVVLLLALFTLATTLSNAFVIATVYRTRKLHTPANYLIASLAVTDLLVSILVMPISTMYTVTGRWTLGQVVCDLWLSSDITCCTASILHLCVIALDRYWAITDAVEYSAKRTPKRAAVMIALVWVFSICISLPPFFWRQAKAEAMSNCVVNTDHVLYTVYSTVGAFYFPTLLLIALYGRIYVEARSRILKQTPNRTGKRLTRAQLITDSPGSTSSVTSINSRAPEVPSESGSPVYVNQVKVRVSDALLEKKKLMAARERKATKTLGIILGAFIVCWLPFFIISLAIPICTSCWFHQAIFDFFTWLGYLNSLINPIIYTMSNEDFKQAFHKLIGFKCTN
Protocol: The affinities of the compounds at the central 5-HT1D binding sites were determined using a modification of the binding assay described by Heuring and Peroutka (J. Neurosci. 7:894-903, 1987). Bovine brains were obtained from Pel-Freeze Biologicals, and the caudate nuclei were dissected out and frozen at -70° C. until the time that the membranes were prepared for the binding assays. At that time the tissues were homogenized in 40 volumes of ice-cold Tris-HCl buffer (50 mM, pH 7.4 at 22° C.) with a Techmar Tissumizer (setting 65 for 15 sec), and the homogenate was centrifuged at 39,800 g for 10 min. The resulting pellet was then resuspended in the same buffer, and the centrifugation and resuspension process was repeated three additional times to wash the membranes. Between the second and third washes the resuspended membranes were incubated for 10 min at 37° C. to facilitate the removal of endogenous 5-HT. the final pellet was resuspended in Tris buffer to a concentration of 25 mg of original tissue wet weight/ml for use in the binding assay. […] The assay tubes were incubated for 10 min at 37° C., and the contents were then rapidly filtered through GF/B filters (pretreated with 0.5% polyethylenimine), followed by four one-mL washes with ice-cold buffer. The radioactivity trapped by the filters was quantitated by liquid scintillation spectrometry, and specific [^3 H]5-HT binding to the 5HT1D sites were defined as the difference between [^3 H]5-HT bound in the presence and absence of 10 μM 5-HT.
The affinities of compounds at the 5-HT1D receptor are expressed as IC50 values, i.e., the concentration required to inhibit 50% of the binding. These values were determined from 12-point competition curves using nonlinear regression (SYSTAT, SYSTAT, Inc. Evanston, Ill.).

5-HT1A receptor = molecular target: T2, 5-HT1A receptor (Rattus norvegicus, UniProt P19327); experiment: [3H]8-OH-DPAT binding to 5-HT1A sites in hippocampal membranes; design: species or system rat (male Sprague-Dawley); details: [3H]8-OH-DPAT 1.0 nM, pH 7.4, 37° C
T2 construct: the brains were rapidly chilled and dissected to obtain the hippocampi; from tissue; host or cells: hippocampi of male Sprague-Dawley rats (150-250 g), washed membranes
T2 sequence (P19327 1-422): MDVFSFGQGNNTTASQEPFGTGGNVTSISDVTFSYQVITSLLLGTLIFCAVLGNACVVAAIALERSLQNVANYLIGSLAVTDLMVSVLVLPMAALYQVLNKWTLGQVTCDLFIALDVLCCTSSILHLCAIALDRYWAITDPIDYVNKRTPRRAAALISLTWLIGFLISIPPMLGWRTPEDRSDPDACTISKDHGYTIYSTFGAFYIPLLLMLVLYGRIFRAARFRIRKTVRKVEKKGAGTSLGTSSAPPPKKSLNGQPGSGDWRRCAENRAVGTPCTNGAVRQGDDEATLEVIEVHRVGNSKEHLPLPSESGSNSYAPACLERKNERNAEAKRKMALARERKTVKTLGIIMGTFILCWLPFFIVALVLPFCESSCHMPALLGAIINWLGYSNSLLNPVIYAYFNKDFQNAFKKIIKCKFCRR
Protocol: The affinities of the compounds at the central […] described by Taylor, et al., (J. Pharmacol. Exp. Ther. 236:118-125, 1986). Membranes for the binding assay were prepared from male Sprague-Dawley rats (150-250 g). The animals were killed by decapitation, and the brains were rapidly chilled and dissected to obtain the hippocampi. The hippocampi were either prepared that day or stored frozen (-70° C.) until the day of preparation. Membranes were prepared by homogenizing the tissue in 40 volumes of ice-cold Tris-HCl buffer (50 mM, pH 7.4 at 22° C.) using a Techmar Tissumizer (setting 65 for 15 sec), and the homogenate was centrifuged at 39800 xg for 10 min. The resulting pellet then resuspended in the same buffer, and the centrifugation and resuspension process was repeated three additional times to wash the membranes. Between the second and third washes the resuspended membranes were incubated for 10 min at 37° C. to facilitate the removal of endogenous ligands. The final pellet was resuspended in 67 mM Tris-HCl, pH 7.4, to a concentration of 2 mg of tissue original wet weight/200 μl. This homogenate was stored frozen (-70° C.) until the day of the binding assay. […] The assay tubes were incubated for 10 min at 37° C, and the contents were then rapidly filtered through GF/B filters (pretreated with 0.5% polyethylenimine), followed by four one-mL washes with ice cold buffer. The radioactivity trapped by the filters was quantitated by liquid scintillation spectrometry, and specific [^3 H]8-OH-DPAT binding to the 5-HT1A sites was defined as the difference between [^3 H]8-OH-DPAT bound in the presence and absence of 10 μM 5-HT.
The affinity of the particular compound at the 5-HT1A receptor is expressed as IC50 value, i.e., the concentration required to inhibit 50% of the binding. The IC50 values were determined from 12-point competition curves using nonlinear regression (SYSTAT, SYSTAT, INC., Evanston, Ill.).

serotonin = experiment: whole brain serotonin concentration in vivo in rats; design: species or system rat (male albino); details: 1 hour, series 0.03-3 mg/kg
Protocol: (§1) In another experiment certain compounds of the Examples were evaluated to determine ability to affect the 5-hydroxyindoles serotonin and 5-hydroxyindole acetic acid (5HIAA), and serum corticosterone, in vivo. Male albino rats were injected subcutaneously with an aqueous solution of the compound. The pH of the solution was adjusted as necessary to solubilize the compound. A control of the solution without the test compound was similarly injected into a control animal. The rats were decapitated one hour later. Trunk blood was collected and allowed to clot. After centrifugation, serum was stored frozen prior to analysis. The whole brain was removed and frozen on dry ice for storage prior to analysis. The serum corticosterone concentration was measured spectrofluorometrically using the procedure of Solem and Brinck-Johnson, "An Evaluation of a Method for Determination of Free Corticosteroids in Minute Quantities of Mouse Plasma", Scand. J. Clin. Lab. Invest., Suppl. 80, p. 1-14 (1965), incorporated herein by reference. 5-Hydroxyindoleacetic acid (5HIAA) concentration in whole brain was measured by liquid chromatography with electrochemical detection as reported by Fuller and Perry, "Effects of Buspirone and its Metabolite, 1-(2-pyrimidinyl)piperazine, on Brain Monoamines and Their Metabolites in Rats", J. Pharmacol. Exp. Ther., 248, p. 50-56 (1989), incorporated herein by reference.

[1] = tested on: 5-hydroxyindole acetic acid (5HIAA); experiment: whole brain 5-hydroxyindoleacetic acid (5HIAA) concentration in vivo in rats; design: species or system rat (male albino); details: 1 hour, series 0.03-3 mg/kg
Protocol: as §1, with “The rats were decapitated one hour later.” left out

serum corticosterone = serum corticosterone concentration in vivo in rats; design: species or system rat (male albino); details: 1 hour, series 0.03-3 mg/kg
Protocol: as §1

| Structure (SMILES) | IC50 (5-HT1D receptor) | IC50 (5-HT1A receptor) | Serotonin (serotonin; 0.03 mg/kg s.c.) | Serotonin (serotonin; 0.3 mg/kg s.c.) | Serotonin (serotonin; 3 mg/kg s.c.) | 5HIAA ([1]; 0.03 mg/kg s.c.) | 5HIAA ([1]; 0.3 mg/kg s.c.) | 5HIAA ([1]; 3 mg/kg s.c.) | Serum Corticosterone (serum corticosterone; 0.03 mg/kg s.c.) | Serum Corticosterone (serum corticosterone; 0.3 mg/kg s.c.) | Serum Corticosterone (serum corticosterone; 3 mg/kg s.c.) |
| --- | --- | --- | --- | --- | --- | --- | --- | --- | --- | --- | --- |
| CCCN(CCC)[C@H]1Cc2c[nH]c3ccc(C(=O)c4ccccc4)c(c23)C1 [Example 10, (4R)-(+)-6-benzoyl-4-(di-n-propylamino)-1,3,4,5-tetrahydrobenz[cd]indole] | 1.81 nM | 0.22 nM |  |  |  |  |  |  |  |  |  |
| CCCN(CCC)C1Cc2c[nH]c3ccc(C(=O)C(C)(C)C)c(c23)C1 (racemic) [Example 1, (±)-6-(2,2-Dimethylpropanoyl)-4-(di-n-propylamino)-1,3,4,5-tetrahydrobenz[cd]indole] | 2.01 nM | 0.5 nM | 3.15 ± 0.13 nmol/g | 3.45 ± 0.10 nmol/g | 3.38 ± 0.08 nmol/g | 1.58 ± 0.05 nmol/g | 1.31 ± 0.03 nmol/g | 1.23 ± 0.04 nmol/g | 8.2 ± 3.2 microg./100 ml | 36.0 ± 4.8 microg./100 ml | 44.2 ± 1.5 microg./100 ml |
